Results as given in PMC9911168, “Cytotoxic and pro-apoptotic effects of botanical drugs derived from the indigenous cultivated medicinal plant Paris polyphylla var. yunnanensis” (Frontiers in Pharmacology, 2023).
“And” between values parts separate entries of the source, which are not always exact repeats. Equal values may be shown once. “Also recorded” adds a separate entry of the source. Read-outs that look alike come from different tables or passages of the source.

Key:
Assay type in all cases: cell-based, human
SMMC-7721 = experiment: MTS cell viability assay, SMMC-7721; conditions: liver cancer cell line SMMC-7721, MTS, 48 h; for IC50: read-out: IC50 (±SD) SMMC-7721
Experimental: (§1) The effects of the extracts and isolated saponins on cell growth were evaluated by the MTS assay (3-(4,5-dimethylthiazol-2-yl)-5(3-carboxymethoxyphenyl)-2-(4-sulfopheny)-2H-tetrazolium; Promega, Madison, WI, United States) on human tumor cell lines ([Mosmann, 1983]; [Cory et al., 1991]; [Malich et al., 1997]). In a test experiment of cell inhibition, the cell inhibition effects of six crude extracts (100 μg/mL) and six isolated saponins (40 μM) were roughly measured to ascertain whether to measure the IC50 value by MTS assay.
(§2) Each well of a 96-well plate (Multiskan Fc, Therm) was seeded with 100 μL cells at a density of 3,000–5,000 cells per well, with the cell suspension containing 10% (v/v) fetal bovine serum (DMEM or RMPI1640, Biological Industries, Kibbutz Beit-Haemek, Israel). After 12–24 h of inoculation and culture at 37°C, the extracts or saponins were added at the indicated concentrations after being dissolved in dimethyl sulfoxide (DMSO, Biological Industries, Kibbutz Beit-Haemek, Israel) in a final volume of 200 μL per well, each in triplicate. The six crude extracts were added at concentrations of 100, 20, 4, 0.8, and 0.16 μg/mL; the six isolated saponins were added at concentrations of 10, 5, 2.5, 1.25, 0.625, and 0.3125 μM. After culture for 48 h at 37°C, 20 μL of MTS solution and 100 μL of DMEM were added to each well; three blank wells were set aside with 20 μL MTS solution and 100 μL DMEM. After an incubation for another 2–4 h, the absorbance at 492 nm was measured. Cisplatin and Paclitaxel (MeilunBio) were used as a positive control in each experiment. The cell growth curve was drawn with the concentration as the abscissa and the cell survival rate as the ordinate. The IC50 value of each saponin was calculated by the two-point method ([Reed and Muench, 1938]).

HepG2 = experiment: MTS cell viability assay, HepG2; conditions: liver cancer cell line HepG2, MTS, 48 h; for IC50: read-out: IC50 (±SD) HepG2
Experimental: as §1, §2

SK-HEP-1 = experiment: MTS cell viability assay, SK-HEP-1; conditions: liver cancer cell line SK-HEP-1, MTS, 48 h; for IC50: read-out: IC50 (±SD) SK-HEP-1
Experimental: as §1, §2

A549 = experiment: MTS cell viability assay, A549; conditions: NSCLC cell line A549, MTS, 48 h; for IC50: read-out: IC50 (±SD) A549
Experimental: as §1, §2

LO2 = experiment: MTS cell viability assay, normal liver cell LO2; conditions: normal liver cell LO2, MTS, read-out: IC50 (±SD) LO2
Experimental: (§3) Three human liver cancer cell lines (SMMC-7721, HepG2, and SK-HEP-1) and the non-small-cell lung cancer (NSCLC) cell line A549 were obtained from ATCC (Manassas, VA, United States). Normal human cell lines (liver cell line LO2 and lung cell line BEAS-2B) were obtained from ATCC (Manassas, VA, United States). Cells were cultured in RMPI-1640 or DMEM medium (Biological Industries, Kibbutz Beit-Haemek, Israel) supplemented with 10% (v/v) fetal bovine serum (Biological Industries) at 37°C in a humidified atmosphere with 5% (v/v) CO2.
as §1, §2

BEAS-2B = experiment: MTS cell viability assay, normal lung cell BEAS-2B; conditions: normal lung cell BEAS-2B, MTS, read-out: IC50 (±SD) BEAS-2B
Experimental: as §3, §1, §2

A549 cells [1] = experiment: Cell cycle analysis (PI staining, flow cytometry), A549; conditions: A549, 24 h; saponins 1 and 5 at 0.5 μM, other four at 1 μM
Experimental: (§4) Cell cycle distribution was determined by propidium iodide (PI, BD, Pharmingen) staining ([Kong et al., 2016]; [Wei et al., 2021]). Briefly, three cancer cell lines were cultured in six-well plates at a density of 3 × 10^5 cells per well for 24 h before treatment with each of the six isolated saponins at the indicated concentrations for 24 h. The cells were collected, centrifuged, and washed twice with ice-cold PBS. Cells were fixed in 70% (v/v) ice-cold ethanol at 4°C overnight and washed again in PBS twice. The cells were incubated with 100 μL RNase A at 37°C for 30 min in the dark, after which 400 μL PI was added to the cells with RNase A in the dark at 4°C for 15 min. The cell cycle stage was analyzed by flow cytometry (BD, FACSCelesta, United States) with FLOWJO software (FlowJo, Ashland, OR, United States).

HepG2 cells [2] = experiment: Cell cycle analysis (PI staining, flow cytometry), HepG2; conditions: HepG2, 24 h, 1 μM
Experimental: as §4

A549 cells [3] = experiment: Apoptosis by annexin V-FITC/PI staining, A549; conditions: A549, saponins 5 μM, Figure 7
Experimental: (§5) Double staining with annexin V-fluorescein isothiocyanate (FITC) and PI was used to determine the effects of the six saponins on cell apoptosis by flow cytometry ([Homburg et al., 1995]; [Vermes et al., 1995]; [Casciola-Rosen et al., 1996]). The effects of the six isolated saponins on apoptosis were determined using an annexin V-FITC apoptosis kit (BD, Pharmingen); the chemotherapy drug doxorubicin (DOX, Beyotime Institute of Biotechnology, Shanghai, China) was used as the positive control. Cells were cultured in six-well plates at a density of 3 × 10^5 cells per well for 24 h before being treated with each of the six isolated saponins at the indicated concentrations for 24 h. The cells were collected, centrifuged, and washed twice with ice-cold phosphate-buffered saline (PBS). The cells were stained with annexin V-FITC and PI for 15 min in the dark at room temperature before analysis by flow cytometry (BD, FACSCelesta, America). Annexin V-FITC^+ and PI^+ (Q2) were considered late-stage apoptotic cells, while annexin V-FITC^+ and PI^− (Q3) cells were considered early-stage apoptotic cells. Annexin V-FITC^– and PI^+ (Q1) were necrotic or mechanically damaged cells, and annexin V-FITC^– and PI^− (Q4) cells were healthy living cells.

HepG2 cells [4] = experiment: Apoptosis by annexin V-FITC/PI staining, HepG2; conditions: HepG2, saponins 5 μM, Figure 7
Experimental: as §5

SMMC-7721 cells = experiment: Apoptosis by annexin V-FITC/PI staining, SMMC-7721; conditions: SMMC-7721, saponins 5 μM, Figure 7
Experimental: as §5

Row | Compound | IC50 (SMMC-7721; Homo sapiens) | IC50 (HepG2; Homo sapiens) | IC50 (SK-HEP-1; Homo sapiens, SK-HEP1) | IC50 (A549; Homo sapiens) | IC50 (LO2; Homo sapiens, L02) [nM] | IC50 (BEAS-2B; Homo sapiens) [nM] | cell cycle phase with increased proportion of cells compared to DMSO control (A549 cells [1]) | apoptosis rate (induction of apoptosis, in words) (A549 cells [3]) | apoptosis rate (induction of apoptosis, in words) (HepG2 cells [4]) | also measured
1 | N.N.[Cl][Pt][Cl] [Cisplatin, reference compound] | – | – | – | – | – | – | – | – | – | IC50 (±SD) SMMC-7721 (SMMC-7721): 5.05 ± 0.12 µg/mL; IC50 (SMMC-7721): 17800 ± 570 nM; IC50 (±SD) HepG2 (HepG2): 1.90 ± 0.13 µg/mL; IC50 (HepG2): 5670 ± 100 nM; IC50 (±SD) SK-HEP-1 (SK-HEP-1): 8.79 ± 0.49 µg/mL; IC50 (SK-HEP-1): 21000 ± 710 nM; IC50 (±SD) A549 (A549): 16.74 ± 0.68 µg/mL; IC50 (A549): 26100 ± 520 nM; IC50 (LO2): 13800 ± 480 nM; IC50 (BEAS-2B): > 40000 nM
2 | CC(=O)O[C@H]1C(=O)[C@@]2(C)[C@H]([C@H](OC(=O)c3ccccc3)[C@]3(O)C[C@H](OC(=O)[C@H](O)[C@@H](NC(=O)c4ccccc4)c4ccccc4)C(C)=C1C3(C)C)[C@]1(OC(C)=O)CO[C@@H]1C[C@@H]2O [Paclitaxel, reference compound] | 0.12 µg/mL and 180 nM | < 0.01 µg/mL and < 10 nM | < 0.01 µg/mL and < 10 nM | < 0.01 µg/mL and < 10 nM | < 10 | > 5000 | – | – | – | –
3 | CC1CCC2(OC1)OC1CC3C4CC=C5CC(OC6OC(CO)C(OC7OC(CO)C(O)C7O)C(O)C6OC6OC(C)C(O)C(O)C6O)CCC5(C)C4CCC3(C)C1(O)C2C [saponin 2, pennogenin-3-O-α-L-arabinofuranosyl-(1→4)-[α-L-rhamnopyranosyl-(1→2)]-β-D-glycopyranoside] | 1880 ± 70 nM | 2140 ± 10 nM | 1580 ± 80 nM | 1250 ± 20 nM | 2330 ± 100 | 4950 ± 40 | S and G2/M phases | strong apoptosis | next | cell cycle phase with increased proportion of cells compared to DMSO control (HepG2 cells [2]): S and G2/M phases
4 | CC1CCC2(OC1)OC1CC3C4CC=C5CC(OC6OC(CO)C(OC7OC(C)C(O)C(O)C7O)C(O)C6OC6OC(C)C(O)C(O)C6O)CCC5(C)C4CCC3(C)C1C2C [saponin 3, diosgenin-3-O-α-L-rhamnopyranosyl-(1→2)-[α-L-rhamnopyranosyl-(1→4)]-β-D-glucopyranoside] | 2560 ± 80 nM | 3800 ± 50 nM | 1800 ± 70 nM | 1690 ± 40 nM | 3780 ± 180 | 3070 ± 190 | G0/G1 phase | – | – | increase of proportion of cells in S phase compared to DMSO control (HepG2 cells [2]): 27.5%
5 | CC1CCC2(OC1)OC1CC3C4CC=C5CC(OC6OC(CO)C(OC7OC(CO)C(O)C7O)C(O)C6OC6OC(C)C(O)C(O)C6O)CCC5(C)C4CCC3(C)C1C2C [saponin 4, diosgenin-3-O-α-L-arabinofuranosyl-(1→4)-[α-L-rhamnopyranosyl-(1→2)]-β-D-glucopyranoside] | 720 ± 20 nM | 1590 ± 30 nM | 660 ± 40 nM | 580 ± 10 nM | 850 ± 10 | 1820 ± 90 | increase in the proportion of cells at the G2/M phase | – | – | increase of proportion of cells in the G2/M phase compared to DMSO control (HepG2 cells [2]): 17.2%
6 | CC1CCC2(OC1)OC1CC3C4CC=C5CC(OC6OC(CO)C(OC7OC(C)C(OC8OC(C)C(O)C(O)C8O)C(O)C7O)C(O)C6OC6OC(C)C(O)C(O)C6O)CCC5(C)C4CCC3(C)C1(O)C2C [saponin 5, pennogenin 3-O-α-L-rhamnopyranosyl-(1→2)-[α-L-rhamnopyranosyl-(1→4)-α-L-rhamnopyranosyl-(1→4)]-β-D-glucopyranoside] | 1200 ± 100 nM | 1570 ± 10 nM | 940 ± 60 nM | 900 ± 10 nM | 900 ± 20 | 940 ± 30 | S phase | stronger apoptosis than the positive control DOX | highest apoptosis rate; also recorded: stronger apoptosis than the positive control DOX | cell cycle phase with increased proportion of cells compared to DMSO control (HepG2 cells [2]): S and G2/M phases; apoptosis rate (induction of apoptosis, in words) (A549 cells [3]; listed as Saponin 5): strong apoptosis; apoptosis rate (induction of apoptosis, in words) (SMMC-7721 cells): substantial induction of apoptosis; also recorded: stronger apoptosis than the positive control DOX
7 | pennogenin-3-O-α-L-rhamnopyranosyl-(1→2)-[α-L-rhamnopyranosyl-(1→4)]-β-D-glucopyranoside [saponin 1] | – | – | – | – | – | – | G2/M phase | stronger apoptosis than the positive control DOX | next and stronger apoptosis than the positive control DOX | IC50 (SMMC-7721): 760 ± 30 nM; IC50 (HepG2): 1780 ± 10 nM; IC50 (SK-HEP-1): 900 ± 40 nM; IC50 (A549): 980 ± 10 nM; IC50 (LO2): 1790 ± 100 nM; IC50 (BEAS-2B): 1190 ± 10 nM; increase of proportion of cells in S phase compared to DMSO control (HepG2 cells [2]): 23.7%; apoptosis rate (induction of apoptosis, in words) (A549 cells [3]; listed as Saponin 1): most effective in inducing apoptosis; apoptosis rate (induction of apoptosis, in words) (SMMC-7721 cells): stronger apoptosis than the positive control DOX; apoptosis rate (induction of apoptosis, in words) (SMMC-7721 cells; listed as Saponin 1): most effective in inducing apoptosis; apoptosis rate (induction of apoptosis, in words) (HepG2 cells [4]; listed as Saponin 1): also effective
